# Laboratory results taken from patent US5519038A, “N,N'-bis(alkoxyalkyl)-pyridine-2,4-dicarboxylic acid diamines” (Hoechst Aktiengesellschaft, priority 1989, dated 1996).
# Key:
# [1] = tested on: liver hydroxyproline (proline hydroxylase and lysine hydroxylase); experiment: Pharmacological activity: inhibition of liver hydroxyproline synthesis in CCl4-treated rats; type: in vivo; conditions: versus CCl4 control
# [2] = tested on: serum 7s-(IV)-collagen (proline hydroxylase and lysine hydroxylase); experiment: Pharmacological activity: inhibition of serum 7s-(IV)-collagen synthesis in CCl4-treated rats; type: in vivo; conditions: versus CCl4 control
# [3] = Enteral absorbability: serum levels after intragastral administration; type: in vivo, female Wistar rats; set-up: unit not given here; conditions: 50 mg/kg perorally (intragastral), mean of 4 measurements
# Protocol: The absorbability was investigated on Wistar rats to which the compounds according to the invention were administered intragastrally. The serum level dropped in the first hours after administration of the substance, and after about 5 hours reached a plateau which still fell only slightly. The good absorbability of the substances can be concluded from the initially very high serum level directly after administration of the substances.
# Female Wistar rats of about 150 g body weight are given an intragastral administration of 50 mg/kg of the substance under investigation by means of a stomach probe.
# In each case 4 rats are anesthetized after 5; 10; 15; 30; 60; 120; 180 and 240 minutes and exsanguinated via the Vena Cava. The blood is centrifuged immediately and the compound administered is extracted from the serum using ether. After the ether has been evaporated, the residue is taken up in […] of mobile phase. The mobile phase consists of 0.05M phosphoric acid and acetonitrile (4:1). 50 μl of this sample are injected into a high performance liquid chromatography column. Detection is performed under UV of 200 nm with a retention time of 2.2 minutes.
# proline hydroxylase [4] = conditions: in words; K. Majamaa et al., 1984; cited from earlier work
# proline hydroxylase [5] = conditions: in words; Tschank, G. et al., 1987; cited from earlier work
# [6] = tested on: Clq biosynthesis of macrophages; conditions: in words; W. Muller et al., 1978; cited from earlier work
# [7] = 120 minutes, DL = detection limit
smiles,measurement,setting,value
"COCCNC(=O)c1ccnc(C(=O)NCCOC)c1 [19 (from SA-88-0896), N,N'-bis(2-methoxyethyl)-pyridine-2,4-dicarboxylic acid diamide, reference compound]",Liver hydroxyproline [% inhibition],"[1]; 2 × 25 mg, i.p.",55 % inhibition
same,Serum 7s-(IV)-collagen [% inhibition],"[2]; 2 × 25 mg, i.p.",48 % inhibition
"CC(C)OCCCNC(=O)c1ccnc(C(=O)NCCCOC(C)C)c1 [20 (from SA-88-0896), N,N'-bis(3-isopropoxypropyl)-pyridine-2,4-dicarboxylic acid diamide, reference compound]",Liver hydroxyproline [% inhibition],"[1]; 2 × 25 mg, p.o.",49 % inhibition
same,Serum 7s-(IV)-collagen [% inhibition],"[2]; 2 × 25 mg, p.o.",11 % inhibition
"COCCCNC(=O)c1ccnc(C(=O)NCCCOC)c1 [Example 1, Pyridine-2,4-dicarboxylic acid bis-N,N'-(methoxypropyl) amide]","Serum level (x, SD)",[3]; 5 minutes,45.3 ± 15.4
same,"Serum level (x, SD)",[3]; 10 minutes,49.8 ± 3.6
same,"Serum level (x, SD)",[3]; 15 minutes,39.9 ± 11.0
same,"Serum level (x, SD)",[3]; 30 minutes,28.1 ± 3.2
same,"Serum level (x, SD)",[3]; 60 minutes,9.4 ± 5.5
same,"Serum level (x, SD)",[3]; [7],0.3 ± 0.3
same,Liver hydroxyproline [% inhibition],"[1]; 2 × 2 mg, p.o.",62 % inhibition
same,Liver hydroxyproline [% inhibition],"[1]; 2 × 10 mg, p.o.",90 % inhibition
same,Serum 7s-(IV)-collagen [% inhibition],"[2]; 2 × 2 mg, p.o.",28 % inhibition
same,Serum 7s-(IV)-collagen [% inhibition],"[2]; 2 × 10 mg, p.o.",67 % inhibition
"CCOCCCNC(=O)c1ccnc(C(=O)NCCCOCC)c1 [Example 2, Pyridine-2,4-dicarboxylic acid bis-N,N'-(ethoxypropyl)amide]","Serum level (x, SD)",[3]; 5 minutes,51.4 ± 11.2
same,"Serum level (x, SD)",[3]; 10 minutes,39.2 ± 4.0
same,"Serum level (x, SD)",[3]; 15 minutes,29.4 ± 6.7
same,"Serum level (x, SD)",[3]; 30 minutes,15.2 ± 5.6
same,"Serum level (x, SD)",[3]; 60 minutes,1.4 ± 1.0
same,Liver hydroxyproline [% inhibition],"[1]; 2 × 2 mg, p.o.",25 % inhibition
same,Liver hydroxyproline [% inhibition],"[1]; 2 × 10 mg, p.o.",60 % inhibition
same,Serum 7s-(IV)-collagen [% inhibition],"[2]; 2 × 2 mg, p.o.",2 % inhibition
same,Serum 7s-(IV)-collagen [% inhibition],"[2]; 2 × 10 mg, p.o.",35 % inhibition
"COC(CNC(=O)c1ccnc(C(=O)NCC(OC)OC)c1)OC [Example 3, Pyridine-2,4-dicarboxylic acid bis-N,N'-(2-dimethoxyethyl) amide]","Serum level (x, SD)",[3]; 5 minutes,8.9 ± 3.1
same,"Serum level (x, SD)",[3]; 10 minutes,11.5 ± 0.6
same,"Serum level (x, SD)",[3]; 15 minutes,14.7 ± 1.9
same,"Serum level (x, SD)",[3]; 30 minutes,10.7 ± 1.9
same,"Serum level (x, SD)",[3]; 60 minutes,11.3 ± 1.5
same,"Serum level (x, SD)",[3]; [7],5.5 ± 0.9
same,"Serum level (x, SD)","[3]; 180 minutes, DL = detection limit",2.9 ± 0.5
same,"Serum level (x, SD)","[3]; 240 minutes, DL = detection limit",1.7 ± 0.4
"O=C(O)c1ccnc(C(=O)O)c1 [pyridine-2,4-dicarboxylic acid]",Inhibition of proline hydroxylase,proline hydroxylase [4],inhibited effectively
same,Activity as inhibitors in the cell culture,proline hydroxylase [5],effective as inhibitors only in very high concentrations
"O=C(O)c1ccc(C(=O)O)nc1 [pyridine-2,5-dicarboxylic acid]",Inhibition of proline hydroxylase,proline hydroxylase [4],inhibited effectively
same,Activity as inhibitors in the cell culture,proline hydroxylase [5],effective as inhibitors only in very high concentrations
"c1ccc(-c2ccccn2)nc1 [α, α'-dipyridyl]",Inhibition of Clq biosynthesis of macrophages,[6],leads to an inhibition of the Clq biosynthesis of macrophages
